# Results taken from US5849695A, “Parathyroid hormone analogues useful for treatment of osteoporosis and disorders of calcium meatabolism in mammals” (The Regents of the University of California, priority 1993, dated 1998).
# Like-named read-outs stand apart in the source and are kept apart here.
# Experiments:
# PTH receptor [1] = molecular target: T1, PTH receptor (Homo sapiens, UniProt Q03431); format: cell-based; design: In intact rat (UMR-106) and human (SaOS-2) bone cell lines; endogenous in cells; host or cells: SaOS-2 human bone (osteosarcoma) cells
# T1 sequence (Q03431 27-593): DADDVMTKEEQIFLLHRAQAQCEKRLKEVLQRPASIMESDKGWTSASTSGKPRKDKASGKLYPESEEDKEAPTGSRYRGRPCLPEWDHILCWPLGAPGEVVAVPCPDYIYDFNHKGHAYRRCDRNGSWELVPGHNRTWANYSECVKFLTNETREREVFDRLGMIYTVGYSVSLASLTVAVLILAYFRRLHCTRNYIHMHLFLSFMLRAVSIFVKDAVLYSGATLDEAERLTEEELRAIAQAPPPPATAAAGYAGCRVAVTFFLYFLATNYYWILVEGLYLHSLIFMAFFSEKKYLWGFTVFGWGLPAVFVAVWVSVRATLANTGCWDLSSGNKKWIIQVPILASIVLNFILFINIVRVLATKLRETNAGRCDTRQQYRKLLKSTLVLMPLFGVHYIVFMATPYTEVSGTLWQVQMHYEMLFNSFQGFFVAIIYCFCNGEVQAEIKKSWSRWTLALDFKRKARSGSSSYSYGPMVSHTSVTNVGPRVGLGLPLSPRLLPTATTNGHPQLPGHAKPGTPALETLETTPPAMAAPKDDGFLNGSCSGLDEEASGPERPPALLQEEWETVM
# Excerpt: The renal membrane assay values listed reflect the effect of the polypeptide analogue with kidney tissue receptors. The UMR-106-H5 assay values reflect the effect of the peptide analogue with rat bone tissue receptors. The Sa05-2 assay values reflect the effect of the peptides for human bone tissue receptors.
# PTH receptor [2] = molecular target: T1, PTH receptor
# PTH receptor [3] = molecular target: T2, PTH receptor (Canis lupus familiaris, UniProt Q9TU31); format: biochemical, canine; conditions: for RENAL MEMBRANES Canine Activity (AC): Table 5B, hPTH(1-34) = 100
# T2 construct: canine renal plasma membranes; from tissue; host or cells: canine kidney (renal plasma membranes)
# T2 sequence (Q9TU31 29-595): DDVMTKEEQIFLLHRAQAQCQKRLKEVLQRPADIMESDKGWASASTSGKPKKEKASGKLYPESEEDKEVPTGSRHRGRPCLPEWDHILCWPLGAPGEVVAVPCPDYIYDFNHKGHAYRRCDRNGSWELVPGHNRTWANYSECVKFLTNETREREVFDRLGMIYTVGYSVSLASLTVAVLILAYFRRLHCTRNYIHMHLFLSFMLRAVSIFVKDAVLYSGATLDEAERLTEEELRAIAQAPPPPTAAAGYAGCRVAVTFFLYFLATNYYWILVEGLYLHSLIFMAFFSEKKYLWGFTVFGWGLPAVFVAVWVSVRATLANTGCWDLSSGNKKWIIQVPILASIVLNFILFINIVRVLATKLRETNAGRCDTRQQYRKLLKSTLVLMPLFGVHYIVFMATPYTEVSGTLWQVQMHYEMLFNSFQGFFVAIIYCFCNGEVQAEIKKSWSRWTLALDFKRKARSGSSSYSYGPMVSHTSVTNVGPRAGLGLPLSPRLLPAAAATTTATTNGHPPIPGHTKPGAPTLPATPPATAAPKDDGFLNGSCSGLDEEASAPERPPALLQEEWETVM
# Protocol: (§1) Receptor binding assays were carried out in canine renal plasma membranes and in UMR 106-H5 rat osteosarcoma cells as previously described in detail (Ref. 14,32), using ^125 I-labeled PTH(1-34)amide as the radioligand. Binding potency (IC50) was quantified as the concentration of unlabeled peptide required for half-maximal displacement of the radioligand. […] Adenylate cyclase activity was assessed in canine renal membranes by the conversion of [α-32p ] ATP to [^32 P] cyclic AMP, essentially as described, except for the addition of 100 micromolar GTP (Ref. 33,34). Adenylate cyclase activity in UMR 106-H5 cells was assessed essentially as described (Ref. 35). In brief, cells were incubated with [3H]adenine 1 micro Ci/ml of serum-free MEM for two hours at 37° C. to label the endogenous ATP pool. Cells were then exposed to 0.4 mM IBMX for 10 min, followed by the appropriate peptide for an additional 10 min at ambient temperature. The cells are then scraped in 20% TCA, and [3H]cyclic AMP is isolated by the column procedure of Salomon et al. (Ref. 36). Potency in the adenylate cyclase assays (Ka) is the concentration of peptide producing half-maximal enzyme activation.
# PTH receptor [4] = molecular target: T3, PTH receptor (Rattus norvegicus, UniProt P25961); format: binding
# T3 construct: endogenous in cells; host or cells: UMR 106-H5 rat osteosarcoma cells
# T3 sequence (P25961 27-591): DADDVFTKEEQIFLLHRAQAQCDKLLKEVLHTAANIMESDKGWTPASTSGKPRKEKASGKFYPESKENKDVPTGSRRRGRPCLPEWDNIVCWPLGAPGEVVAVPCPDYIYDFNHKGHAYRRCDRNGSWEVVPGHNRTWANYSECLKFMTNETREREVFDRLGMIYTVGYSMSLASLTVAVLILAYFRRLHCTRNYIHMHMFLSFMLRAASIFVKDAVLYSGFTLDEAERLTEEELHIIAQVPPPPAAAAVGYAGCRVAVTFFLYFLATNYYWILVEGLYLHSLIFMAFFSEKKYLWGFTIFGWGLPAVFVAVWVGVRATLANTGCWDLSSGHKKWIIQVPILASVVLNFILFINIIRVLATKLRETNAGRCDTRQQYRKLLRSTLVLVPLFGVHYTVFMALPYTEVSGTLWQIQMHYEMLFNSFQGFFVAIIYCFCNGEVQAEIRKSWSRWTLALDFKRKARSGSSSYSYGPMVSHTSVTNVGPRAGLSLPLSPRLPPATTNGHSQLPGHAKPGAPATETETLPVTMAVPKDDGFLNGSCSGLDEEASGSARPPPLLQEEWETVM
# Protocol: as §1
# PTH receptor [5] = molecular target: T2, PTH receptor; format: binding, canine
# Protocol: as §1
# PTH receptor [6] = system: PTH receptor
# PTH receptor [7] = molecular target: T3, PTH receptor; format: cell-based; conditions: for BONE CELLS Rat(UMR-106) Activity (AC): Table 5A, intact cells, hPTH(1-34) = 100
# Protocol: as §1, with “Assays were conducted using […] cells. These assays were performed as described in Cohen et al. (1991), J. Biological Chem., 266(3), 1997 and in the Experimental section, e.g. Example 11. Receptor” for “Receptor”
# [8] = cited from earlier work
# [9] = Table 5A, intact cells, hPTH(1-34) = 100
molecule,measurement,setting,value
"CC[C@H](C)[C@H](NC(=O)[C@H](CCC(=O)O)NC(=O)[C@H](Cc1c[nH]cn1)NC(=O)[C@@H](NC(=O)[C@@H](N)CO)C(C)C)C(=O)N[C@@H](CCC(N)=O)C(=O)N[C@@H](CC(C)C)C(=O)N[C@@H](CCSC)C(=O)N[C@@H](Cc1c[nH]cn1)C(=O)N[C@@H](CC(N)=O)C(=O)N[C@@H](CC(C)C)C(=O)NCC(=O)N[C@@H](CCCCN)C(=O)N[C@@H](Cc1c[nH]cn1)C(=O)N[C@@H](CC(C)C)C(=O)N[C@@H](CC(N)=O)C(=O)N[C@@H](CO)C(=O)N[C@@H](CCSC)C(=O)N[C@@H](CCC(=O)O)C(=O)N[C@@H](CCCNC(=N)N)C(=O)N[C@H](C(=O)N[C@@H](CCC(=O)O)C(=O)N[C@@H](Cc1c[nH]c2ccccc12)C(=O)N[C@@H](CC(C)C)C(=O)N[C@@H](CCCNC(=N)N)C(=O)N[C@@H](CCCCN)C(=O)N[C@@H](CCCCN)C(=O)N[C@@H](CC(C)C)C(=O)N[C@@H](CCC(N)=O)C(=O)N[C@@H](CC(=O)O)C(=O)N[C@H](C(=O)N[C@@H](Cc1c[nH]cn1)C(=O)N[C@@H](CC(N)=O)C(=O)N[C@@H](Cc1ccccc1)C(=O)O)C(C)C)C(C)C [[his^3]hPTH(1-34), [his^3]HPTH(1-34)]",KIDNEY CELLS (CK) Potency (B),PTH receptors,6%
same,potency of native [ser^3]HPTH(1-34) retained in binding to PTH receptors,PTH receptors,5-15%
same,BONE CELLS Human(SaOS-2) Potency (AC),PTH receptor [1],5%
same,BONE CELLS Human(SaOS-2) Activity (AC),PTH receptor [1]; [9],100%
same,BONE CELL MEMBRANES Human SaOS-2 Potency (AC),PTH receptor [2],11%
same,BONE CELL MEMBRANES Human SaOS-2 Activity (AC),"PTH receptor [2]; Table 5B, hPTH(1-34) = 100",14%
same,RENAL MEMBRANES Canine Potency (AC),PTH receptor [3],1%
same,RENAL MEMBRANES Canine Activity (AC),PTH receptor [3],43%
same,BONE CELLS Rat(UMR-106) Potency (B),PTH receptor [4],1%
same,RENAL MEMBRANES Canine Potency (B),PTH receptor [5],4%
same,KIDNEY CELLS (CK) Potency (AC),PTH receptor [6],13%
same,BONE CELLS Rat(UMR-106) Potency (AC),PTH receptor [7],4%
same,BONE CELLS Rat(UMR-106) Activity (AC),PTH receptor [7],100%
"CC[C@H](C)[C@H](NC(=O)[C@H](CCC(=O)O)NC(=O)[C@H](CO)NC(=O)[C@@H](NC(=O)[C@@H](N)CO)C(C)C)C(=O)N[C@@H](CCC(N)=O)C(=O)N[C@@H](CC(C)C)C(=O)N[C@@H](CCSC)C(=O)N[C@@H](Cc1c[nH]cn1)C(=O)N[C@@H](CC(N)=O)C(=O)N[C@@H](CC(C)C)C(=O)NCC(=O)N[C@@H](CCCCN)C(=O)N[C@@H](Cc1c[nH]cn1)C(=O)N[C@@H](CC(C)C)C(=O)N[C@@H](CC(N)=O)C(=O)N[C@@H](CO)C(=O)N[C@@H](CCSC)C(=O)N[C@@H](CCC(=O)O)C(=O)N[C@@H](CCCNC(=N)N)C(=O)N[C@H](C(=O)N[C@@H](CCC(=O)O)C(=O)N[C@@H](Cc1c[nH]c2ccccc12)C(=O)N[C@@H](CC(C)C)C(=O)N[C@@H](CCCNC(=N)N)C(=O)N[C@@H](CCCCN)C(=O)N[C@@H](CCCCN)C(=O)N[C@@H](CC(C)C)C(=O)N[C@@H](CCC(N)=O)C(=O)N[C@@H](CC(=O)O)C(=O)N[C@H](C(=O)N[C@@H](Cc1c[nH]cn1)C(=O)N[C@@H](CC(N)=O)C(=O)N[C@@H](Cc1ccccc1)C(=O)O)C(C)C)C(C)C [hPTH (1-34), hPTH(1-34), reference compound]",KIDNEY CELLS (CK) Potency (B),PTH receptors; [9],100%
same,RENAL MEMBRANES Canine Potency (AC),PTH receptor [3],100%
same,RENAL MEMBRANES Canine Activity (AC*),"PTH receptor [3]; Table 1(A), large doses, relative to hPTH(1-34) = 100%",100%
same,RENAL MEMBRANES Canine Activity (AC),PTH receptor [3],100%
same,BONE CELLS Rat(UMR-106) Potency (B),PTH receptor [4],100%
same,UMR106-H5 CELLS Rat Bone Potency (B),PTH receptor [4],100%
same,RENAL MEMBRANES Canine Potency (B),PTH receptor [5],100%
same,KIDNEY CELLS (CK) Potency (AC),PTH receptor [6]; [9],100%
same,BONE CELLS Rat(UMR-106) Potency (AC),PTH receptor [7],100%
same,UMR106-H5 CELLS Rat Bone Potency (AC),PTH receptor [7],100%
same,UMR106-H5 CELLS Rat Bone Activity (AC*),"PTH receptor [7]; Table 1(A), relative to hPTH(1-34) = 100%",100%
same,BONE CELLS Rat(UMR-106) Activity (AC),PTH receptor [7],100%
"[Gln^22, Lys^28, Leu^30 hPTH(1-34)",loss of biological activity,"[8]; Ref. 49, 50",10-50 fold
[SOMet^18 ]bPTH(1-84),activity of the native hormone retained,[8]; Ref. 49,~50%
